Assay results reported in US10689383B2, “Optionally fused heterocyclyl-substituted derivatives of pyrimidine useful for the treatment of inflammatory, metabolic, oncologic and autoimmune diseases” (NUEVOLUTION A/S, priority 2014, dated 2020).

Experiments:
[1] = target: T1, yeast Gal4-DNA binding domain fused to the ligand binding domain of human RORγ (Homo sapiens, UniProt P51449); experiment: RORγ Reporter Assay (Gal4); type: cell-based; settings: values given as lower bounds of ranges
T1 construct: host or cells: HEK293t
T1 sequence (P51449 269-508 limits assumed): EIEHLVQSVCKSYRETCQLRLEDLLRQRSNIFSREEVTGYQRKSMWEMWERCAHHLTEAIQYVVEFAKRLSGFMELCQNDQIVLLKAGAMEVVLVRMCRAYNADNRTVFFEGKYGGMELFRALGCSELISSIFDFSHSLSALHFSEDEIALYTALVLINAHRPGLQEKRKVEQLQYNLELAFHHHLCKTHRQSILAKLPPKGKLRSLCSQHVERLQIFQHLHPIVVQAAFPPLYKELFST
Summary of the method: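 HEK293t reporter cells expressing the hybrid, with Gal4-UAS-driven firefly luciferase, treated in triplicate with compound at 1,000 nM and 100 nM (0.1% DMSO) in medium with 10% charcoal-stripped FBS for 24 h at 37 °C. Luminescence read; percent reduction of RLU calculated relative to vehicle.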

male DBA/1J mice = experiment: Collagen-Induced Arthritis (CIA) Study; type: in vivo; settings: orally twice daily
Description: Collagen-induced arthritis is an animal model of rheumatoid arthritis used to evaluate the efficacy of test compounds. CIA was induced at Washington Biotechnology Inc. (Baltimore) in male DBA/1J mice (Jackson Laboratories) by subcutaneous injection at the base of the tail with 50 μl of a bovine collagen/complete Freund's adjuvant emulsion. After 21 days, the mice were further boosted by a further subcutaneous injection of 50 μl of a collagen/incomplete Freund's adjuvant emulsion. For treatment, compound or vehicle (2% DMSO, 10% HP-β-CD in MilliQ water) was given orally twice daily at various doses selected from 3, 10, 30 mg/kg, beginning at the day of CIA induction (Prophylactic setting), or after disease initiation (at day 27, therapeutic setting). Treatment lasted until day 41, and the animals were scored three times weekly. Each paw was scored and the sum of all four scores was recorded as the Arthritic Index (AI). The maximum possible AI was 16.0=no visible effects of arthritis; 1=edema and/or erythema of one digit; 2=edema and/or erythema of 2 joints; 3=edema and/or erythema of more than 2 joints; 4=severe arthritis of the entire paw and digits including limb deformation and ankylosis of the joint. The Arthritis Index for each treatment can be expressed as the mean score for each treatment group+/−S.E.M.

female C57BL/6 mice = experiment: Experimental Autoimmune Encephalomyelitis (EAE) Study; type: in vivo; settings: 10 and 30 mg/kg, orally twice daily, 25 days
[2] = target: T2, human RORγt (Ligand Binding Domain) (Homo sapiens, UniProt P51449); experiment: Fluorescence Polarization (FP) Assay; settings: Fluorescence Polarization (FP) Assay; values given as upper bounds of activity ranges; read-out: FP activity range
T2 construct: purchased Crelux (Planegg, Germany) batch no PC5032-1
T2 sequence (P51449 269-508 limits assumed): T1 sequence (P51449 269-508 limits assumed)
Summary of the method: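 In vitro FP binding assay monitoring ligand binding within the ligand binding pocket. Probe is a TAMRA-labelled RORγt ligand (MW 910 g/mole); DMSO served as negative control.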

`NC(=O)Cc1ccc(CNc2ncnc(N3CCOC[C@@H]3c3ccc(C(F)(F)F)cc3)c2F)cc1` [Example 204, 2-[4-[[[5-fluoro-6-[(3S)-3-[4-(trifluoromethyl)phenyl]morpholin-4-yl]pyrimidin-4-yl]amino]methyl]phenyl]acetamide] was tested, and the “Gal4 activity range @ 0.1 μM (% inhibition)” value ([1]; RORγ Reporter Assay (Gal4) at 0.1 μM) was over 50 % inhibition, the “Gal4 activity range @ 1 μM (% inhibition)” value ([1]; RORγ Reporter Assay (Gal4) at 1 μM) was over 80 % inhibition and the “CIA disease development, therapeutic setting” value (male DBA/1J mice; 30 mg/kg, from day 27) was “arrest disease development”. The “CIA disease severity, prophylactic setting” value (male DBA/1J mice; 10 and 30 mg/kg, from day of CIA induction) was “significantly reduce disease severity”, the EAE clinical score (female C57BL/6 mice) was “lower clinical score” and the “onset of EAE” value (female C57BL/6 mice) was “delay onset”. It also gave an IC50 [2] of under 500 nM.
